30 molecules from patent US20150005347A1, “NITROGEN-CONTAINING HETEROCYCLIC DERIVATIVE HAVING 2-IMINO GROUP AND PEST CONTROL AGENT INCLUDING THE SAME” (MEIJI SEIKA PHARMA CO., LTD., priority 2012, published 2015) can be followed below.

SMILES strings stand for the structures.

Holding throughout (type): in vivo
Data set [1] deals with Aphis gossypii. As to the kind of experiment: Pest control test of Aphis gossypii, cucumber leaf disk foliar spray. As to conditions: Aphis gossypii, 72 h, first instar larvae, three days after release; for mortality at 100 ppm: foliar treatment at 100 ppm; for mortality at 100 ppm / mortality at 20 ppm: read-out: mortality of larvae; for mortality at 20 ppm: foliar treatment at 20 ppm. On the procedure: Test Example 3 Pest Control Test of Aphis gossypii
A leaf disk having a diameter of 2.0 cm was cut out from a cucumber in pot culture, and a drug solution of the compound of the present invention at a predetermined concentration, which had been prepared so as to be a 50% acetone water (0.05% Tween20 available), was sprayed to the leaf disk. After an air drying process, first instar larvae were released thereto. Thereafter, the larvae were left to stand in a thermostatic chamber (16 hours of light period-8 hours of dark period) at 25° C. […] Test in duplicate.
(§1) Mortality of larvae(%)={number of dead larvae/(number of survived larvae+number of dead larvae)}×100

The subject of data set [2] is Musca domestica. The experiment in a line: Pest control test of Musca domestica adults, sucrose pledget. As to conditions: 50 ppm in 40% sucrose liquid; four days after release. On the procedure:
Test Example 21 Pest Control Test of Musca domestica
A drug solution of the compound of the present invention, which had been adjusted to be 50 ppm with a 40% sucrose liquid, was adsorbed on a pledget, and the pledget was put into a vial. Two adults reared indoors were released thereto. Thereafter, the adults were left to stand indoors at room temperature of 25° C. […] When two adults were all agonized in death, it was judged to be effective.

Data set [3] has as its system Plutella xylostella. As to the kind of experiment: Plutella xylostella control test, cabbage leaf disk foliar spray. As to conditions: Plutella xylostella, 72 h; foliar treatment at 100 ppm; second instar larvae; three days after release; read-out: mortality of larvae. The protocol: Test Example 1 Plutella xylostella Control Test
A leaf disk having a diameter of 5.0 cm was cut out from a cabbage in pot culture, and a drug solution of the compound of the present invention at a predetermined concentration, which had been prepared so as to be a 50% acetone water (0.05% Tween20 available), was sprayed to the leaf disk. After an air drying process, second instar larvae were released thereto. Thereafter, the larvae were left to stand in a thermostatic chamber (16 hours of light period-8 hours of dark period) at 25° C. […] Test in duplicate.
mortality larvae(%)={number of dead larvae/(number of survived larvae+number of dead larvae)}×100

The subject of data set [4] is Frankliniella occidentalis. As to the kind of experiment: Pest control test of Frankliniella occidentalis, kidney bean leaf disk foliar spray. As to conditions: Frankliniella occidentalis, 72 h; foliar treatment at 100 ppm; first instar larvae; three days after release; read-out: mortality of larvae.
Excerpt: Test Example 7 Pest Control Test of Frankliniella occidentalis
A leaf disk having a diameter of 2.8 cm was cut out from a kidney bean in pot culture, and a drug solution of the compound of the present invention at a predetermined concentration, which had been prepared so as to be a 50% acetone water (0.05% Tween20 available), was sprayed to the leaf disk. After an air drying process, first instar larvae were released thereto. Thereafter, the larvae were left to stand in a thermostatic chamber (16 hours of light period-8 hours of dark period) at 25° C. […] Test in duplicate.
as §1

For data set [5], the system named is Trigonotylus caelestialium. As to the kind of experiment: Pest control test of Trigonotylus caelestialium, wheat seedling dipping. The conditions noted are these: Trigonotylus caelestialium, 72 h; dipping treatment of the drug solution at 10 ppm; three days after treatment; read-out: mortality of larvae.
Excerpt: Test Example 8 Pest Control Test of Trigonotylus caelestialium
Wheat seedling leaves and stems four days after the dissemination of seedlings were dipped for 30 seconds in a drug solution of the compound of the present invention at a predetermined concentration, which had been prepared so as to be a 50% acetone water (0.05% Tween20 available). After an air drying process, the wheat seedling leaves and stems were placed into a glass tube, and two second instar larvae of Trigonotylus caelestialium were released to the same glass tube. After the larvae were released, the tube was lidded to leave the larvae to stand in a thermostatic chamber at 25° C. In order to supply water to the wheat during the test, water was given to the wheat from the bottom of the glass tube.
as §1

Data set [6] concerns imidacloprid susceptible populations of Nilaparvata lugens. As to the kind of experiment: Soil irrigation test, imidacloprid susceptible populations of Nilaparvata lugens. On the procedure: A rice seedling in pot culture was subjected to soil irrigation treatment with a drug solution of the compound of the present invention at a predetermined concentration, which had been prepared so as to be a 10% acetone water. […] Thereafter, the larvae were left to stand in a thermostatic chamber (16 hours of light period-8 hours of dark period) at 25° C. […] The test was performed in duplicate.
as §1
Further, for comparison, the test against some population of Nilaparvata lugens which is highly susceptible to imidacloprid was performed by the same method as described above, and the results thereof are shown in Table 43.
Further, for the origin of test pests, bugs collected outdoors within the Kumamoto prefecture in 2007 as the drug resistant Nilaparvata lugens, and bugs collected within the Kagoshima prefecture and then successively reared indoors for a long time as the imidacloprid susceptible populations of Nilaparvata lugens were used.

With `O=C(/N=c1\ccccn1Cc1ccc(Cl)nc1)OCC(F)(F)F` [Compound 1-17, 2,2,2-trifluoroethyl-[1-((6-chloropyridin-3-yl)methyl)pyridin-(2H)-ylidene]carbamate], the mortality at 100 ppm in data set [1] is ≥ 80%. Besides, the mortality at 500 ppm in data set [1] (foliar treatment at 500 ppm) was ≥ 80%.
Turning to `CCN=C(N=c1ccccn1Cc1ccc(Cl)nc1)C(F)(F)F` [Compound 1-43], the “activity against adults (effective when two adults were all agonized in death)” value (“activity against adults” below) in data set [2] was “all the adults are agonized in death”.
Still for that read-out and setting: under `CCCN=C(N=c1ccccn1Cc1ccc(Cl)nc1)C(F)(F)F` [Compound 1-44] stands “all the adults are agonized in death”; under `FC(F)(F)C(=NC1CC1)N=c1ccccn1Cc1ccc(Cl)nc1` [Compound 1-50], “all the adults are agonized in death”; under `C#CCN=C(N=c1ccccn1Cc1ccc(Cl)nc1)C(F)(F)F` [Compound 1-56], “all the adults are agonized in death”.
`FC(F)(F)C(=NCc1ccccc1)N=c1ccccn1Cc1ccc(Cl)nc1` [Compound 1-72]: the “activity against adults” value in data set [2] is “all the adults are agonized in death”.
On to `FC(F)(F)C(=NCCOc1ccccc1)N=c1ccccn1Cc1ccc(Cl)nc1` [Compound 1-114], for which, in data set [2], the “activity against adults” value is listed as “all the adults are agonized in death”.
On the same count and under the same terms, under `FC(F)(F)C(=NCc1ccccn1)N=c1ccccn1Cc1ccc(Cl)nc1` [Compound 1-118] stands “all the adults are agonized in death”; under `FC(F)(F)C(=NCc1cccnc1)N=c1ccccn1Cc1ccc(Cl)nc1` [Compound 1-119], “all the adults are agonized in death”.
Same read-out and setting: under `CSCCN=C(N=c1ccccn1Cc1ccc(Cl)nc1)C(F)(F)F` [Compound 1-150] stands “all the adults are agonized in death”; under `CON=C(N=c1ccccn1Cc1ccc(Cl)nc1)C(F)(F)F` [Compound 1-500], “all the adults are agonized in death”.
In the case of `C=CCON=C(/N=c1\ccccn1Cc1ccc(Cl)nc1)C(F)(F)F` [Compound 1-507, N′-(aryloxy)-N-[1-((6-chloropyridin-3-yl)methyl)pyridin-2(1H)-ylidene]-2,2,2-trifluoroacetimidamide], the mortality at 100 ppm in data set [3] was ≥ 80%. Besides, in data set [1], the mortality at 20 ppm was ≥ 80% and the mortality at 100 ppm was ≥ 80%.
Regarding `C#CCC(=O)ON=C(N=c1ccccn1Cc1ccc(Cl)nc1)C(F)(F)F` [Compound 1-518], the “activity against adults” value in data set [2] was “all the adults are agonized in death”.
The same measure, in the same setting: the value for `Cc1ccc(S(=O)(=O)ON=C(N=c2ccccn2Cc2ccc(Cl)nc2)C(F)(F)F)cc1` [Compound 1-531] was “all the adults are agonized in death”.
For the molecule `CCCNC(=O)O/N=C(/N=c1\ccccn1Cc1ccc(Cl)nc1)C(F)(F)F` [Compound 1-534, N-[1-((6-chloropyridin-3-yl)methyl)pyridin-2(1H)-ylidene]-2,2,2-trifluoro-N′-((propylcarbamoyl)oxy)acetimidamide], the mortality at 100 ppm in data set [3] was ≥ 80%.
On to `FC(F)(F)C(=S)N=c1ccccn1Cc1cnc(Cl)s1` [Compound 2-20], for which the “activity against adults” value in data set [2] is reported as “all the adults are agonized in death”.
Take `O=C(/N=c1\ccccn1Cc1ccc(F)nc1)C(F)F` [Compound 3-3, 2,2-difluoro-N-[1-((6-fluoropyridin-3-yl)methyl)pyridin-2(1H)-ylidene]acetamide]: the mortality at 100 ppm in data set [3], in data set [1] and in data set [4] was ≥ 80% in each case. The mortality at 20 ppm in data set [1] was ≥ 80%. The mortality at 10 ppm in data set [5] is ≥ 80%. The “activity against adults” value in data set [2] was “all the adults are agonized in death”.
For `O=C(N=c1ccccn1Cc1ccc(F)nc1)C(F)(F)Cl` [Compound 3-4], the “activity against adults” value in data set [2] is recorded as “all the adults are agonized in death”.
The same measure, in the same setting: the value for `O=C(N=c1ccccn1Cc1ccc(F)nc1)C(F)(F)C(F)(F)F` [Compound 3-5] was “all the adults are agonized in death”.
In the case of `O=C(N=c1ccccn1Cc1ccc(Br)nc1)C(F)F` [Compound 4-3], the “activity against adults” value in data set [2] is reported as “all the adults are agonized in death”.
On the same count and under the same terms, under `O=C(N=c1ccccn1Cc1ccc(Br)nc1)C(F)(F)Cl` [Compound 4-4] stands “all the adults are agonized in death”; under `O=C(N=c1ccccn1Cc1ccc(Br)nc1)C(F)(F)C(F)(F)F` [Compound 4-5], “all the adults are agonized in death”; under `O=C(N=c1ccccn1Cc1cnc(Cl)c(F)c1)C(F)(F)Cl` [Compound 5-4], “all the adults are agonized in death”.
The same measure, in the same setting: the value for `O=C(N=c1ccccn1Cc1cnc(Cl)c(F)c1)C(F)(F)C(F)(F)F` [Compound 5-5] was “all the adults are agonized in death”; that for `O=C(N=c1ccccn1Cc1cnc(Cl)nc1)C(F)F` [Compound 6-3] was “all the adults are agonized in death”.
For the molecule `O=C(N=c1ccccn1Cc1cnc(Cl)nc1)C(F)(F)Cl` [Compound 6-4], the “activity against adults” value in data set [2] is “all the adults are agonized in death”.
In the case of `O=C(N=c1ccccn1Cc1cnc(Cl)nc1)C(F)(F)C(F)(F)F` [Compound 6-5], in data set [2], the “activity against adults” value is “all the adults are agonized in death”.
For `O=C(/N=c1\ncccn1Cc1ccc(Cl)nc1)C(F)(F)F` [Compound 190-2, N-[1-((6-chloropyridin-3-yl)methyl)pyrimidin-2(1H)-ylidene]-2,2,2-trifluoroacetamide], in data set [1], the mortality at 20 ppm was ≥ 80% and the mortality at 100 ppm is ≥ 80%.
As to `O=C(N=c1cccnn1Cc1ccc(Cl)nc1)C(F)(F)F` [Compound 223-2], the “activity against adults” value in data set [2] is listed as “all the adults are agonized in death”.
As to `O=[N+]([O-])NC1=NCCN1Cc1ccc(Cl)nc1` [Imidacloprid], the results for the “Insecticidal effects against Nilaparvata lugens (mortality of larvae %), Susceptible populations three days after the treatment” value in data set [6] (Rate 0.01 mg/pot) and in data set [6] (Rate 0.05 mg/pot) were 73% and 90%, respectively.
